# Laboratory results taken from patent US20250009734A1, “METHODS OF INHIBITING FOXO1 FOR TREATMENT OF LYMPHATIC DISORDERS” (UNIVERSITY OF SOUTH FLORIDA, priority 2023, published 2025).
# Experiments:
# [1] = test system: human dermal lymphatic endothelial cells (hdLECs); test: Western blot quantification of protein levels in cultured hdLECs; type: cell-based; conditions: 0.5 μM, 48 hours, vs vehicle control
# Protocol: FIGS. 2A-2F. AS1842856 elevates protein expression of valve genes and promotes b-catenin nuclear localization in cultured hdLECs. (A) hdLECs were cultured under static condition and treated for 48 hours with 0.5 μM DMSO (vehicle control) or 0.5 μM AS treatment. Thereafter, proteins were extracted, and western blot perform for the indicated proteins. ACTB is the loading control. (B) Quantification results of indicated proteins in western blot from three independent experiments. (C-F) Immunostaining of cultured hdLECs for PROX1 and CTNNB1 protein. All values are mean±SEM. n=3 experiment repeats; ns=not significant; *p≤0.05, **p≤0.01, ***p≤0.001. Vehicle control: 0.5 μM DMSO for 48 hours treatment. AS1842856: 0.5 μM AS1842856 for 48 hours treatment. Cells were stained for PROX1 (green) and CTNNB1 (purple). (E) and (F) are the merged images for PROX1 and CTNNB1. Scale bar is 50 μm.
# Next, the inventors performed western blot on the cells treated with 0.5 μM for 48 hours to determine whether the expression of these genes on the protein level was consistent with the PCR results. Three independent experiments of cultured hdLECs were performed, similarly to the quantitative RT-qPCR experiments. Protein levels of FOXC2, GATA2, KLF4, ITGα9, GJA4, activated β-catenin, total β-catenin, PROX1, and FOXO1 were quantified from western blot.
# Human dermal lymphatic endothelial cells (hdLECs) purchased from Promocell (C-12216) were cultured in EBM-V2 (PromoCell, C-22121) media on fibronectin (20 μl/well) coated 6-well plates. hdLECs were treated with 4 different conditions: DMSO (1 μM), AS1842856 (EMD Millipore Corporation) 0.1 μM, 0.5 μM and 1 μM for 3 different time points: 24, 48, and 72 hours for qRT-PCR. For western blot, hdLECs were treated with 0.5 μM AS1842856 for 48 hours.
# hdLECs were washed 3 times with 1×PBS and 1×RIPA buffer and 100× phosphatase inhibitor (Pierce™, Thermoscientific) was added. A cell scraper was used to scrape the hdLECs off the 6-well plate. hdLECs were pipetted and submerged in lysis RIPA solution. The lysate was collected in a 1.5 mL protein LoBind tube and incubated for 15 mins in ice on an orbital shaker (Belly button, IBI Scientific) for complete lysis. The lysates were then centrifuged for 20 mins at 18300 RPM at 4° C. to and the supernatant was collected in a separate Protein LoBind tube without disturbing the pellet. A Bicinchoninic acid assay (BCA assay, Pierce™, Thermofisher) was performed to calculate protein concentration according to manufacturer's instructions and 25 μg of the total protein was utilized to perform the western blot. The Invitrogen™ mini gel tank apparatus was used to run the western blot on a 4-12% Blot™ Bis Tris Plus polyacrylamide gel. Protein transfer to a PVDF membrane was carried out using an iBlot 2 dry blotting system (Lifesciences, Thermofisher) under the P0 module. The iBind Flex western system (Thermo Fisher Scientific) was used to process the mini blots utilizing an incubation time of >2.5 hours after which the blots were imaged using a Bio-Rad ChemiDoc imaging system.
# Quantification analysis of western blot bands was performed in the following manner: 1. Unsaturated western blot images (.scn) were opened with Image Lab 6.1 (Bio-Rad); 2. Using the “lane and bands” tool on the left sidebar of Image Lab, the lanes were defined and adjusted manually; 3. Using the “lane and bands” tool, the bands were identified manually with “add” bands option; 4. The “lane profile” tool was used to omit background; 5. The standard and sample lanes were labeled on the “image info” tool; 6. The adjusted volume (Int) value was obtained using the “lane analysis” tool on Image Lab; 7. Each protein's band volume was normalized to the band volume of the housekeeping protein (b-Actin); 8. Relative expression of each protein was calculated by normalizing the band volume of the experimental group (AS 0.5) to its control (DMSO).
# FOXO1 = FOXO1 (Homo sapiens, UniProt Q12778); conditions: binds to FOXO1 protein, prevents binding to promoter regions; Nagashima et al., 2010; cited from earlier work
# Sequence of FOXO1 (Q12778 whole entry, species assumed): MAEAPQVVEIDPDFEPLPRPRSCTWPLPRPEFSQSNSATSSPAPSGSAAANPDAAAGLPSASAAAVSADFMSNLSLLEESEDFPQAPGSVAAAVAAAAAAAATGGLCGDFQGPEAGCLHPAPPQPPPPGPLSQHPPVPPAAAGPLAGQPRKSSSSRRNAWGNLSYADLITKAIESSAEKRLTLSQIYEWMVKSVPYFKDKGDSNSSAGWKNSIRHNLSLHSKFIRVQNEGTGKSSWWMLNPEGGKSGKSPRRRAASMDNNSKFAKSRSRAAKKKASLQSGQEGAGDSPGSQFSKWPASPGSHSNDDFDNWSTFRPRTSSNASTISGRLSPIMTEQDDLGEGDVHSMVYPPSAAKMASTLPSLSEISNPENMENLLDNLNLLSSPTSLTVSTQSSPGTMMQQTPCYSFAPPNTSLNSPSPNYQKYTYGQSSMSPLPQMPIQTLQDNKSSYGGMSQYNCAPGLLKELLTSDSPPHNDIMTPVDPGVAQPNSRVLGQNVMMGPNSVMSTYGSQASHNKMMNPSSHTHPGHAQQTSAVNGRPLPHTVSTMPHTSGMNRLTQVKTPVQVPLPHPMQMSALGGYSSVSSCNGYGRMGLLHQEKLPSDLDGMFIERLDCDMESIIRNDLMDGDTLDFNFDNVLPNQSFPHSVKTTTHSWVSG
# FOXO4 = FOXO4 (Homo sapiens, UniProt P98177); conditions: Nagashima et al., 2010; cited from earlier work
# Sequence of FOXO4 (P98177 whole entry, species assumed): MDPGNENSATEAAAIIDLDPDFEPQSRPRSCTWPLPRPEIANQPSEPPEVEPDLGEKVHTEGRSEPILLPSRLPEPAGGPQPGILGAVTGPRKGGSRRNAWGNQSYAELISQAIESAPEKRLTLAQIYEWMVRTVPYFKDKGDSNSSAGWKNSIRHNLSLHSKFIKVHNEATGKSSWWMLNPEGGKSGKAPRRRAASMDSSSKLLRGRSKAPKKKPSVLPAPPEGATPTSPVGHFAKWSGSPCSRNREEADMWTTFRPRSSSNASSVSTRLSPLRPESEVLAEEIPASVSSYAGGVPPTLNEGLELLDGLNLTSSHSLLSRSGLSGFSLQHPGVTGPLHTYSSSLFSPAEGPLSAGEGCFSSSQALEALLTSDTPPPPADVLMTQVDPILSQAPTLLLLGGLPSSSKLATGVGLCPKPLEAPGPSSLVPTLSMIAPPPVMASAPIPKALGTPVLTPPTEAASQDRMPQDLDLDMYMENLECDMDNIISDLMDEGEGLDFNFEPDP
structure (smiles),measurement,setting,value
CCn1cc(C(=O)O)c(=O)c2c(N)c(F)c(NC3CCCCC3)cc21 [AS1842856],FOXC2 protein expression level,[1],significantly upregulated
same,FOXO1 protein expression,[1],did not change
same,GATA2 protein expression level,[1],significantly upregulated
same,GJA4 protein expression level,[1],significantly upregulated
same,ITGA9 protein expression level,[1],significantly upregulated
same,KLF4 protein expression level,[1],significantly upregulated
same,PROX1 protein level,[1],did not alter
same,amount of active (non-phosphorylated) β-catenin protein,[1],increased significantly
same,amount of p-GSK3β,[1],significantly decreased
same,amount of total GSK3β,[1],significantly increased
same,amount of total β-catenin protein,[1],increased significantly
same,effect on transcription activity of FOXO1 in the nucleus,FOXO1,reduces the transcription activity of FOXO1
same,effect on inhibiting the activity of FOXO4,FOXO4,minimal effect
